Measurements taken from PubChem BioAssay AID1224902.

Test system: PC3 prostate cancer viability, PrestoBlue fluorescence
Test: growth inhibition of PC3 cells, dose response, mTOR inhibitor project (AID 1224902)

Question: Which EC50 does the source give for `CCOC(Cn1nc(-c2ccc3oc(N)nc3c2)c2c(N)ncnc21)OCC` here?
Answer: 37 nM
